# Results from patent publication US11220671B2, “Methods for the maturation of cardiomyocytes on amniotic fluid cell-derived ECM, cellular constructs, and uses for cardiotoxicity and proarrhythmic screening of drug compounds” (STEMBIOSYS, INC., priority 2019, dated 2022).
# Where two headings read alike, the source gives them in different places.
# Columns and labels:
# [1] = CiPA list: high, intermediate or low risk for causing fatal arrhythmias (TdPs) in patients; cited from earlier work
# [2] = system: mature cardiomyocytes (hiPSC-CMs) on AFC-ECM
# Experimental: The cardiotoxicity and/or proarrhythmia testing can be conducted using any type of equipment suitable for measuring such activity. In some embodiments, the cellular constructs of monolayers of mature cardiomyocytes on AFC-ECM are prepared as described supra. After the maturation process (generally 7 days or less), the electrophysiology of each well is observed using a plate reader. A suitable voltage sensitive or calcium sensitive fluorescent dye is loaded into each well. Non-limiting voltage sensitive dyes include FluoVolt™ dye commercially available from ThermoFisher. In some embodiments, the plate reader can rely on a suitable high spatiotemporal CCD camera combined with suitable lighting, such as light emitting diodes (LEDs), of the appropriate wavelength to excite each dye. Such high spatiotemporal CCD cameras are commercially available from SciMeasure. In some embodiments, the camera image acquisition rate is greater than or equal to 150 frames per second. In some embodiments, the camera and lens combination are designed such that it allows visualization of all the wells of the multi-well plate simultaneously with sufficient resolution to observe action potential and calcium wave propagation. Each plate is centered under the camera system, lighting is switched on and camera acquisition is initiated and electrophysiological activity is recorded. Experiments are performed at about 37° C. After baseline readings are made, the drug to be tested is added to the wells and the effects are recorded. Spontaneous activity is recorded for a sufficient period of time to obtain images, e.g. at least 10 seconds. The images can be stored on a computer. Images are analyzed and action potential duration, conduction velocity, beat rate and activation patterns can be quantified using image analysis software. Visualization of electrical wave patterns is important to determine a drug compound's effect to cause potentially fatal arrhythmias, e.g., Torsades de Pointes (TdP). Thus, in addition to providing information on a compound's effect on spontaneous action potential duration, the methods disclosed herein can also provide information on impulse conduction velocity and activation pattern depending on the type of equipment used.
# After the 7-day maturation process the electrophysiology of each well was observed using a plate reader using the following high throughput screen method. FluoVolt™ dye in Hanks Balanced Salt Solution was loaded into each well. A high spatiotemporal CCD camera (SciMeasure DaVinci camera) combined with light emitting diodes (LEDs) as shown in the schematic in FIG. 22. The camera and lens combination were designed such that it allowed visualization of all the wells of the 96-well plate simultaneously with sufficient resolution to observe action potential and calcium wave propagation. Each plate was centered under the camera system, lighting was switched on and camera acquisition was initiated and electrophysiological activity was recorded. Experiments were performed at about 37° C. Spontaneous activity was recorded for at least 10 seconds and images were stored on a computer. […] Images were analyzed and action potential duration, conduction velocity, beat rate and activation patterns were quantified using image analysis software.
# The drugs were selected from the CiPA Initiative's list of compounds for validation and testing of CiPA and are classified as high risk, intermediate risk or low risk for causing fatal arrhythmias (TdPs) in patients.
# [3] = mature cardiomyocytes on AFC-ECM, 96-well plates, plate reader, any arrhythmia detected over Dose 1-4
# [4] = mature cardiomyocytes on AFC-ECM, 96-well plates, at 10 times the effective therapeutic plasma concentration
SMILES,Risk Category [1],"Arrhythmia Detected? [2, 3]","APD90 Prolongation? @10X ETPC [2, 4]",APD90 Prolongation? @10X ETPC [2],Arrhythmia Detected? [2]
"CC(C)NCC(O)c1ccc(NS(C)(=O)=O)cc1 (stereo not drawn) [D, I Sotalol]",High,"Yes, EAD",Yes,–,–
CCCCCCCN(CC)CCCC(O)c1ccc(NS(C)(=O)=O)cc1 (stereo not drawn) [Ibutilide],High,–,–,YeS,"Yes, EAD"
COc1ccc(CCN(C)CCCC(C#N)(c2ccc(OC)c(OC)c2)C(C)C)cc1OC (stereo not drawn) [Verapamil],–,–,–,"No, Shortening",No
CC(C)COCC(CN(Cc1ccccc1)c1ccccc1)N1CCCC1 (stereo not drawn) [Bepridil],High,–,–,Yes,"Yes, Q"
O=C(CCCN1CC=C(n2c(=O)[nH]c3ccccc32)CC1)c1ccc(F)cc1 [Droperidol],–,–,–,Yes,"Yes, EAD"
Cc1cccc(C)c1OCC(C)N (stereo not drawn) [Mexiletine],–,–,–,No,No
Cc1nccn1CC1CCc2c(c3ccccc3n2C)C1=O (stereo not drawn) [Ondansetron],Intermediate,–,–,Yes,"Yes, EAD"
COc1ccc(CCN2CCC(Nc3nc4ccccc4n3Cc3ccc(F)cc3)CC2)cc1 [Astemizole],–,–,–,Yes,Yes
COCCc1ccc(OCC(O)CNC(C)C)cc1 (stereo not drawn) [Metoprolol],–,–,–,No,"Yes,"
C=C[C@H]1C[N@@]2CC[C@H]1C[C@@H]2[C@@H](O)c1ccnc2ccc(OC)cc12 [Quinidine],–,"Yes, EAD",–,Yes,–
CN(CCOc1ccc(NS(C)(=O)=O)cc1)CCc1ccc(NS(C)(=O)=O)cc1 [Dofetilide],–,–,–,Yes,"Yes, EAD"
CN1CCN(CCCCN2C(=O)CN(/N=C/c3ccc(-c4ccc(Cl)cc4)o3)C2=O)CC1 [Azimilide],High,–,–,Yes,"Yes, EAD"
CCOC(=O)C1=C(C)NC(C)=C(C(=O)OC)C1c1cccc([N+](=O)[O-])c1 (stereo not drawn) [Nitrendipine],–,–,–,"No,",No
O=c1[nH]c2ccccc2n1C1CCN(CCCC(c2ccc(F)cc2)c2ccc(F)cc2)CC1 [Pimozide],–,–,–,No,Yes
CC(C)(C)c1ccc(C(O)CCCN2CCC(C(O)(c3ccccc3)c3ccccc3)CC2)cc1 (stereo not drawn) [Terfenadine],–,–,–,Yes,No
CC/C(=C(\c1ccccc1)c1ccc(OCCN(C)C)cc1)c1ccccc1 [Tamoxifen],–,–,–,No,No
COc1ccc([C@@H]2Sc3ccccc3N(CCN(C)C)C(=O)[C@@H]2OC(C)=O)cc1 [Diltiazem],–,–,–,"No, shortening",No
COc1cc2c(Nc3ccc(Br)cc3F)ncnc2cc1OCC1CCN(C)CC1 [Vandetanib],High,–,–,Yes,"Yes, EAD"
Cc1nc2n(c(=O)c1CCN1CCC(c3noc4cc(F)ccc34)CC1)CCCC2 [Risperidone],–,–,–,–,No
COc1ccccc1OCC(O)CN1CCN(CC(=O)Nc2c(C)cccc2C)CC1 (stereo not drawn) [Ranolazine],Low,–,–,No,No
CN1CCN(C2=Nc3cc(Cl)ccc3Nc3ccccc32)CC1 [Clozapine],–,–,–,Yes,No
CC(C)N(CCC(C(N)=O)(c1ccccc1)c1ccccn1)C(C)C (stereo not drawn) [Disopyramide],–,–,–,Yes,"Yes, EAD, TA"
COc1cc(N)c(Cl)cc1C(=O)NC1CCN(CCCOc2ccc(F)cc2)CC1OC (stereo not drawn) [Cisapride],Intermediate,–,–,No,Yes
CCOC(=O)N1CCC(=C2c3ccc(Cl)cc3CCc3cccnc32)CC1 [Loratadine],–,No,No,–,–
O=c1[nH]c2ccccc2n1CCCN1CCC(n2c(=O)[nH]c3cc(Cl)ccc32)CC1 [Domperidone],–,–,–,Yes,"Yes, TA"
